From ChEMBL document CHEMBL1130682, “A concise synthesis and in vitro cytotoxicity of new labdane diterpenes” (Bioorg Med Chem Lett, 1998)
Converted amounts (≈) assume the structure as drawn.

Legend:
Assay type in all cases: functional, cell-based
P388 = assay: In vitro cytotoxicity of compound was measured on murine lymphocytic leukemia (P-388) cells.; conditions: Mus musculus
B16 = assay: In vitro cytotoxicity of compound was measured on murine melanoma (B16) cells.; conditions: Mus musculus
SNU1 = assay: In vitro cytotoxicity of compound was measured on human gastric adenocarcinoma (SNU-1) cells.

Compound `C=C1CC[C@H]2C(C)(C)CCC[C@]2(C)[C@H]1CC(O)c1ccoc1` (some centres not stated) has an IC50 (P388) of 3.6 µg/mL (≈ 11.9 µM), an IC50 (B16) of 47.2 µg/mL (≈ 156 µM) and an IC50 (SNU1) of 3.9 µg/mL (≈ 12.9 µM).

Work on `C=C1[C@H](O)C[C@H]2C(C)(C)CCC[C@]2(C)[C@H]1/C=C/c1ccoc1` yielded an IC50 (P388) of 10.3 µg/mL (≈ 34.3 µM), an IC50 (B16) of 27.3 µg/mL (≈ 90.9 µM) and an IC50 (SNU1) of 4.8 µg/mL (≈ 16 µM).

`CC(=O)O[C@]1(C)CC[C@H]2C(C)(C)CCC[C@]2(C)[C@H]1C/C=C1/CCOC1=O` gave an IC50 (P388) of 7.8 µg/mL (≈ 21.5 µM), an IC50 (B16) of 11.3 µg/mL (≈ 31.2 µM) and an IC50 (SNU1) of 12.3 µg/mL (≈ 33.9 µM).

For `CC(=O)O[C@]1(C)CC[C@H]2C(C)(C)CCC[C@]2(C)[C@H]1CC=O`, the IC50 (P388) was 6.9 µg/mL (≈ 23.4 µM), the IC50 (B16) was 31.9 µg/mL (≈ 108 µM) and the IC50 (SNU1) was 4.8 µg/mL (≈ 16.3 µM).

For `C=C1CC[C@H]2C(C)(C)CCC[C@]2(C)[C@H]1/C=C/c1ccoc1` [CORONARIN E], the IC50 (P388) was 10 µg/mL (≈ 35.2 µM), the IC50 (B16) was 18.8 µg/mL (≈ 66.1 µM) and the IC50 (SNU1) was 8 µg/mL (≈ 28.1 µM).

`C=C1CC[C@H]2C(C)(C)CCC[C@]2(C)[C@H]1C/C=C1/CCOC1=O` was tested, and the IC50 (P388) was 6.7 µg/mL (≈ 22.2 µM), the IC50 (B16) was 7.5 µg/mL (≈ 24.8 µM) and the IC50 (SNU1) was 19.2 µg/mL (≈ 63.5 µM).

`COc1cccc2c1C(=O)c1c(O)c3c(c(O)c1C2=O)C[C@@](O)(C(=O)CO)C[C@@H]3O[C@H]1C[C@H](N)[C@H](O)[C@H](C)O1` [DOXORUBICIN] gave an IC50 (P388) of 0.09 µg/mL (≈ 0.166 µM) and an IC50 (SNU1) of 2.15 µg/mL (≈ 3.96 µM).

`C=C1CC[C@H]2C(C)(C)CCC[C@]2(C)[C@H]1C/C=C(\CO)CCO` showed an IC50 (P388) of 6.3 µg/mL (≈ 20.6 µM), an IC50 (B16) of 28.9 µg/mL (≈ 94.3 µM) and an IC50 (SNU1) of 8.6 µg/mL (≈ 28.1 µM).

In the case of `C=C1CC[C@H]2C(C)(C)CCC[C@]2(C)[C@H]1CC=O`, the IC50 (P388) is reported as 0.16 µg/mL (≈ 0.683 µM), the IC50 (B16) is reported as 30.8 µg/mL (≈ 131 µM) and the IC50 (SNU1) is reported as 3.9 µg/mL (≈ 16.6 µM).

`C=C1CC[C@H]2C(C)(C)CCC[C@]2(C)[C@H]1C/C=C(/C=O)CC=O` gave an IC50 (P388) of 4.1 µg/mL (≈ 13.6 µM), an IC50 (B16) of 41.2 µg/mL (≈ 136 µM) and an IC50 (SNU1) of 12 µg/mL (≈ 39.7 µM).

`CC1(C)CCC[C@@]2(C)[C@H]1CCC1(CO1)[C@@H]2C/C=C1/CCOC1=O` (some centres not stated) was tested, and the IC50 (P388) was 12.3 µg/mL (≈ 38.6 µM), the IC50 (B16) was 84.5 µg/mL (≈ 265 µM) and the IC50 (SNU1) was 15.7 µg/mL (≈ 49.3 µM).

`C=C[C@](C)(O)CC[C@@H]1[C@@]2(C)CCCC(C)(C)[C@@H]2CC[C@@]1(C)O` [SCLAREOL] showed an IC50 (P388) of 10.1 µg/mL (≈ 32.7 µM), an IC50 (B16) of 28 µg/mL (≈ 90.8 µM) and an IC50 (SNU1) of 11.9 µg/mL (≈ 38.6 µM).

`CO[C@@]12[C@H](COC(N)=O)C3=C(C(=O)C(C)=C(N)C3=O)N1C[C@@H]1N[C@@H]12` [MITOMYCIN] gave an IC50 (P388) of 0.06 µg/mL (≈ 0.179 µM) and an IC50 (SNU1) of 2.32 µg/mL (≈ 6.94 µM).
